According to patent US20240108674A1, “BERBERIS EXTRACT NANO-FORMULATION AND PROCESS OF PREPARATION THEREOF” (priority 2021, published 2024):

System: RBC membrane
Experiment: In-vitro anti-inflammatory activity, RBC membrane protection
Assay type: cell-based
Settings: concentration of 5 mg/mL

Structure (SMILES)	RBC membrane protection
O=C(O)Cc1ccccc1Nc1c(Cl)cccc1Cl [diclofenac sodium]	76%
C[C@]12C=CC(=O)C=C1CC[C@@H]1[C@@H]2[C@@H](O)C[C@@]2(C)[C@H]1CC[C@]2(O)C(=O)CO [prednisolone]	73%
